Source: patent US20180344639A1, “HYPOXIA-TARGETED POLYMERIC MICELLES FOR CANCER THERAPY AND IMAGING” (priority 2012, published 2018)

Columns and labels:
[1] = Encapsulation efficiency of drug in PMC of Example I by dialysis and UV/Vis absorbance; format: physicochemical; conditions: PMC from Example I; dialysis 10,000 MWCO; tris buffer (pH 7.4) given for Drug A only
Procedure: (§1) The polymer is dissolved in deionized water or an aqueous buffer at a concentration of 0.010 g/mL. Drugs A is dissolved in DMSO at a concentration of 5 μg/μl. Drug A is added dropwise to the polymer solution with constant stirring at room temperature. The drugs are added over the course of 60 minutes resulting in a 2-5 fold molar excess over polymer. The solution is centrifuged to remove any precipitates and transferred to dialysis tubing with 10,000 MWCO. The solution is dialyzed against an aqueous buffer (50× volume) for 30 minutes.
(§2) The absorbance of the polymer-drug solution and dialysis buffer are recorded and compared to respective pre-dialysis samples by a UV/Vis spectrophotometer (polymer absorbance=280 nm; Drug A absorbance=450 nm). The encapsulation efficiency is calculated from the change in absorbance of the drug after this initial dialysis. The polymer-drug solution is dialyzed further with fresh buffer (50× volume) with multiple readings over the course of 72 hours with 4 buffer changes. The rate at which the drug is released from the polymeric micelle is calculated by the change in absorbance of the drug over time from the polymer-drug solution and dialysis buffer.
(§3) Encapsulation of Drug B is carried out by the same dialysis procedure as described in Example III for Drug A. Drug B is dissolved in DMSO to a stock solution of 2.5 mg/ml. […]

[2] = Release of drug from the polymeric micelle during dialysis, by change in absorbance; format: physicochemical; conditions: PMC from Example I; 24 hours dialysis; tris buffer (pH 7.4) given for Drug A only
Procedure: as §1, §2, §3

Encapsulation efficiency [1]: greater than 80% | drug released [2]: 50%
SMILES: CCCNC(=O)c1c(C)[nH]c(/C=C2\C(=O)Nc3ccc(F)cc32)c1C [Drug A]
